Consider three compounds from US20260000697A1, “COMBINATION FORMULATION OF CEDAZURIDINE” (Otsuka Pharmaceutical Co., Ltd., priority 2022, published 2026).

One data set is described as follows: clinical. On the procedure:
Blood samples were collected pre-dose, and 0.5, 1, 1.5, 2, 2.5, 3, 3.5, 4, 5, 7, 9 and 24 hours after dosing.

The conditions of data set [1]: for release at buffer stage from enteric capsule: 50 mM phosphate buffer pH 6.8; for release at buffer stage from enteric capsule / release in acid stage from enteric capsule: Capsule 1 and Capsule 2; for release in acid stage from enteric capsule: 0.1 N HCl, 2 hours.
Data set [2] deals with fetal hemoglobin levels (Hb F). The following applies: orally administered (8 mg/kg), repeatedly phlebotomized baboon (PCV less than 20%); cited from earlier work.
For data set [3] the following is noted: 80 mg oral dose, 3 subjects, one value per subject, post-dose; cited from earlier work.
[4] abbreviates: human, blood, subcutaneous, 60 mg.

Where “and” joins values, the source holds several entries; their conditions need not be identical. Equal values may be shown once. Read-outs that look alike come from different tables or passages of the source.

One may read the AUC(0-t) as the area under the concentration-time curve up to a stated or last time point. Low readings indicate low exposure, high ones high exposure. As usually defined, the Cmax is the peak of the concentration-time curve. By Tmax is commonly meant the time from dosing to the highest level. Take `Nc1ncn([C@@H]2O[C@H](CO)[C@@H](O)[C@H]2O)c(=O)n1` [Group 1 (azacitidine, SQ), azacitidine]: in “clinical” (setting [4]), the AUC(0-t) is 761 ng·h/mL, the Cmax is 384 ng/mL and the Tmax worked out at 0.6 h.
Regarding `Nc1ncn([C@@H]2O[C@H](CO)C(O)[C@@H]2O)c(=O)n1` (some centres unmarked) [azacitidine], in data set [1], the “release at buffer stage from enteric capsule” value is recorded as “rapidly released” and the “release in acid stage from enteric capsule” value is reported as “slowly released”. Besides, the “elevation in fetal hemoglobin levels (Hb F)” value in data set [2] is given as “no elevation”. The Tmax in data set [3] was 1.5 h and 2.0 h and 1.0 h.
With `O=C1N[C@H](O)CCN1[C@@H]1O[C@H](CO)[C@@H](O)C1(F)F` [cedazuridine], in data set [1], the “release at buffer stage from enteric capsule” value was “rapidly released” and the “release in acid stage from enteric capsule” value was “slowly released”. Also, the “stability in dissolution medium” value in data set [1] (pH 6.8) is on record as “degradation is minimal”. For the same compound, the “effect of co-administration on azacitidine PK” value in the data set “clinical” (60 mg oral delayed release azacitidine with vs without 60 mg cedazuridine) is “increased Tmax, Cmax and AUC for azacitidine”.
